The values that follow come from PMC11124387, “A Reliable Multifaceted Solution against Foodborne Viral Infections: The Case of RiLK1 Decapeptide” (Molecules, 2024).

The subject of this test is Campylobacter jejuni. It is filed as cell-based. The settings on record: peptide 40 and 80 µM, 6 h at 37 °C. The text has this:
The monophasic variant of Salmonella Typhimurium, Salmonella Napoli, and Campylobacter jejuni were isolated by the Laboratory of Microbiological Food Control—Department of Food Microbiology of the Istituto Zooprofilattico Sperimentale del Mezzogiorno in Portici (Naples, Italy) in raw and processed foodstuffs of animal origin. Specifically, the monophasic variant of S. Typhimurium and S. Napoli were isolated from bivalve mollusks, while C. jejuni was isolated from poultry meat. Bacterial cells were cultured at 37 °C in the appropriate culture media (S. Typhimurium and S. Napoli in buffered peptone water (Thermo Fisher, Milan, Italy) and C. jejuni in Bolton Broth (Oxoid, Madrid, Spain)) until collection and then diluted in fresh broth to a final concentration of 1.5 × 10^3 colony forming units (CFUs)/mL. Thereafter, peptide stock solutions in DMSO were added to the bacterial suspension at the same concentrations used in the virucidal assays (40 and 80 µM) and incubated at 37 °C for 6 h. Samples containing only cell suspension and DMSO were used as controls. […]

For the substance “KLRWVKIWKK-NH2 [RiLK30, newly designed RiLK1 derivative, Arg residues exchanged with Lys and Lys3 with Arg]”, the “inhibitory activity against Campylobacter jejuni (in words)” value is given as “the most ineffective”.
